Source: PubChem BioAssay AID248 (DTP/NCI, 2004)
“And” between values parts separate entries of the source, which are not always exact repeats. Equal entries are not always repeated. Toxic doses and inconclusive results are not listed. Cut-off read from the data, not from the text of the source: active = T/C of 150% or more; inactive = T/C below 125%.

Test system: L1210 leukemia ip in BDF1 mice, survival T/C
Assay: NCI In Vivo Anticancer Drug Screen. Data for tumor model L1210 Leukemia (intraperitoneal) in B6D2F1 (BDF1) mice
Details: endpoint: mean survival time, higher = longer survival
Summary of the method: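 Value reflects the ratio of survival in compound-treated mice to survival in vehicle-treated controls, with both groups carrying the same transplanted tumor.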

[1] = dose: 100.0 mg/kg/injection, schedule: Q01DX009 (ip), vehicle: saline with Tween-80
[2] = dose: 100.0 mg/kg/injection, schedule: Q01DX001 (ip), vehicle: saline
[3] = dose: 100.0 mg/kg/injection, schedule: Q04DX003 (ip), vehicle: saline
[4] = dose: 200.0 mg/kg/injection, schedule: Q01DX001 (ip), vehicle: saline
[5] = dose: 200.0 mg/kg/injection, schedule: Q04DX003 (ip), vehicle: saline
[6] = dose: 400.0 mg/kg/injection, schedule: Q01DX001 (ip), vehicle: saline
[7] = dose: 100.0 mg/kg/injection, schedule: Q01DX009 (ip), vehicle: Klucel (hydroxypropylcellulose) (HPC)
[8] = dose: 200.0 mg/kg/injection, schedule: Q01DX009 (ip), vehicle: Klucel (hydroxypropylcellulose) (HPC)
[9] = dose: 100.0 mg/kg/injection, schedule: Q01DX001 (ip), vehicle: Klucel (hydroxypropylcellulose) (HPC)
[10] = dose: 100.0 mg/kg/injection, schedule: Q04DX003 (ip), vehicle: saline with Tween-80
[11] = dose: 200.0 mg/kg/injection, schedule: Q04DX003 (ip), vehicle: saline with Tween-80
[12] = dose: 75.0 mg/kg/injection, schedule: Q01DX001 (ip), vehicle: other
[13] = dose: 100.0 mg/kg/injection, schedule: Q04DX003 (ip), vehicle: Klucel (hydroxypropylcellulose) (HPC)
[14] = dose: 200.0 mg/kg/injection, schedule: Q04DX003 (ip), vehicle: Klucel (hydroxypropylcellulose) (HPC)
[15] = dose: 100.0 mg/kg/injection, schedule: Q01DX001 (ip), vehicle: saline with Tween-80
[16] = dose: 200.0 mg/kg/injection, schedule: Q01DX001 (ip), vehicle: saline with Tween-80
[17] = dose: 400.0 mg/kg/injection, schedule: Q01DX001 (ip), vehicle: saline with Tween-80
[18] = dose: 50.0 mg/kg/injection, schedule: Q04DX003 (ip), vehicle: saline with Tween-80

Measured: T/C

CCCCCCCCCCCCCS
inactive: dose: 40.0 mg/kg/injection, schedule: Q01DX Z (ip), vehicle: saline 108 % of control | dose: 50.0 mg/kg/injection, schedule: Q04DX003 (ip), vehicle: carboxymethylcellulose (CMC) 100 % of control | dose: 60.0 mg/kg/injection, schedule: Q01DX Z (ip), vehicle: saline 120 % of control | dose: 90.0 mg/kg/injection, schedule: Q01DX Z (ip), vehicle: saline 111 % of control | dose: 100.0 mg/kg/injection, schedule: Q01DX001 (ip), vehicle: carboxymethylcellulose (CMC) 110 % of control | dose: 100.0 mg/kg/injection, schedule: Q04DX003 (ip), vehicle: carboxymethylcellulose (CMC) 105 % of control | dose: 135.0 mg/kg/injection, schedule: Q01DX Z (ip), vehicle: saline 120 % of control | dose: 200.0 mg/kg/injection, schedule: Q01DX001 (ip), vehicle: carboxymethylcellulose (CMC) 101 % of control | dose: 200.0 mg/kg/injection, schedule: Q01DX Z (ip), vehicle: saline 108 % of control | dose: 200.0 mg/kg/injection, schedule: Q04DX003 (ip), vehicle: carboxymethylcellulose (CMC) 100 % of control | dose: 202.5 mg/kg/injection, schedule: Q01DX Z (ip), vehicle: saline 117 % of control | dose: 400.0 mg/kg/injection, schedule: Q01DX001 (ip), vehicle: carboxymethylcellulose (CMC) 116 % of control | dose: 450.0 mg/kg/injection, schedule: Q01DX Z (ip), vehicle: saline 108 % of control | dose: 675.0 mg/kg/injection, schedule: Q01DX Z (ip), vehicle: saline 90 % of control

Cc1cc(C)cc(OC(=O)/C=C/C(=O)Oc2cc(C)cc(C)c2)c1
inactive: [1] 105 % of control | dose: 200.0 mg/kg/injection, schedule: Q01DX009 (ip), vehicle: saline with Tween-80 100 % of control | dose: 400.0 mg/kg/injection, schedule: Q01DX009 (ip), vehicle: saline with Tween-80 102 % of control

NCC(O)c1ccc(O)cc1 (configuration not stated)
inactive: dose: 50.0 mg/kg/injection, schedule: Q04DX003 (ip), vehicle: saline 101 % of control | [2] 93 % of control | [3] 97 % of control | [4] 93 % of control | [5] 98 % of control | [6] 101 % of control

COc1ccccc1C(C)=O
inactive: dose: 50.0 mg/kg/injection, schedule: Q01DX009 (ip), vehicle: Klucel (hydroxypropylcellulose) (HPC) 97 % of control | [7] 100 % of control | [8] 87 % of control

C=CCSCCC=O
inactive: dose: 25.0 mg/kg/injection, schedule: Q01DX001 (ip), vehicle: Klucel (hydroxypropylcellulose) (HPC) 100 % of control | dose: 50.0 mg/kg/injection, schedule: Q01DX001 (ip), vehicle: Klucel (hydroxypropylcellulose) (HPC) 102 % of control | [9] 102 % of control

Nc1nccs1
inactive: dose: 0.75 mg/kg/injection, schedule: Q01DX009 (ip), vehicle: carboxymethylcellulose (CMC) 100 % of control | dose: 1.5 mg/kg/injection, schedule: Q01DX009 (ip), vehicle: carboxymethylcellulose (CMC) 103 % of control | dose: 1.5 mg/kg/injection, schedule: Q04DX002 (ip), vehicle: saline with Tween-80 93 % of control | dose: 3.0 mg/kg/injection, schedule: Q01DX009 (ip), vehicle: carboxymethylcellulose (CMC) 100 % of control | dose: 3.0 mg/kg/injection, schedule: Q04DX002 (ip), vehicle: saline with Tween-80 90 % of control | dose: 3.5 mg/kg/injection, schedule: Q04DX002 (ip), vehicle: saline with Tween-80 91 % of control | dose: 6.0 mg/kg/injection, schedule: Q01DX009 (ip), vehicle: carboxymethylcellulose (CMC) 100 % of control | dose: 12.0 mg/kg/injection, schedule: Q01DX009 (ip), vehicle: carboxymethylcellulose (CMC) 103 % of control | dose: 12.0 mg/kg/injection, schedule: Q04DX002 (ip), vehicle: saline with Tween-80 101 % of control and 91 % of control

CSC(S(C)(=O)=O)S(C)(=O)=O
inactive: [10] 90 % of control | [11] 96 % of control | dose: 400.0 mg/kg/injection, schedule: Q04DX003 (ip), vehicle: saline with Tween-80 98 % of control

CC(SCc1cc(=O)[nH]c(=O)[nH]1)C(=O)O (configuration not stated)
inactive: [3] 98 % of control | [5] 98 % of control | dose: 400.0 mg/kg/injection, schedule: Q04DX003 (ip), vehicle: saline 96 % of control

CCN(CC)CCCC(C)Nc1cc(N)nc2nc(-c3ccc(Cl)cc3)c(-c3ccc(Cl)cc3)nc12 (configuration not stated)
inactive: dose: 37.5 mg/kg/injection, schedule: Q01DX009 (ip), vehicle: Klucel (hydroxypropylcellulose) (HPC) 95 % of control | dose: 37.5 mg/kg/injection, schedule: Q04DX003 (ip), vehicle: Klucel (hydroxypropylcellulose) (HPC) 98 % of control | [12] 97 % of control | dose: 75.0 mg/kg/injection, schedule: Q01DX009 (ip), vehicle: Klucel (hydroxypropylcellulose) (HPC) 90 % of control | dose: 75.0 mg/kg/injection, schedule: Q04DX003 (ip), vehicle: Klucel (hydroxypropylcellulose) (HPC) 102 % of control | dose: 150.0 mg/kg/injection, schedule: Q04DX003 (ip), vehicle: Klucel (hydroxypropylcellulose) (HPC) 93 % of control

CCOC(=O)Nc1cc2c(c(N)n1)N=C(CN(C)c1ccc(Cl)cc1)CN2
active: [9] 150 % of control and 165 % of control
inactive: dose: 150.0 mg/kg/injection, schedule: Q01DX001 (ip), vehicle: Klucel (hydroxypropylcellulose) (HPC) 93 % of control

CCC1CC2CN3CCc4c([nH]c5ccccc45)C(C(=O)OC)(C2)C13 (configuration not stated)
inactive: [12] 96 % of control | dose: 150.0 mg/kg/injection, schedule: Q01DX001 (ip), vehicle: other 105 % of control

CNCC(O)c1cccc(O)c1 (configuration not stated)
inactive: dose: 1.56 mg/kg/injection, schedule: Q01DX009 (ip), vehicle: saline 94 % of control | dose: 3.12 mg/kg/injection, schedule: Q01DX009 (ip), vehicle: saline 98 % of control | dose: 3.12 mg/kg/injection, schedule: Q04DX003 (ip), vehicle: saline 109 % of control | dose: 6.25 mg/kg/injection, schedule: Q01DX009 (ip), vehicle: saline 94 % of control | dose: 6.25 mg/kg/injection, schedule: Q04DX003 (ip), vehicle: saline 104 % of control | dose: 12.5 mg/kg/injection, schedule: Q01DX009 (ip), vehicle: saline 122 % of control | dose: 12.5 mg/kg/injection, schedule: Q04DX003 (ip), vehicle: saline 96 % of control | dose: 25.0 mg/kg/injection, schedule: Q01DX009 (ip), vehicle: saline 100 % of control | dose: 25.0 mg/kg/injection, schedule: Q04DX003 (ip), vehicle: saline 113 % of control

CC(=O)Oc1c(C2CCCCC2)cc([N+](=O)[O-])cc1[N+](=O)[O-]
inactive: [13] 94 % of control | [14] 101 % of control

Cc1ccc(N=Nc2ccc(C)cc2NC(=O)c2ccc(Cl)cc2Cl)cc1
inactive: [7] 88 % of control | [8] 97 % of control | dose: 400.0 mg/kg/injection, schedule: Q01DX009 (ip), vehicle: Klucel (hydroxypropylcellulose) (HPC) 89 % of control

CCCCCCCCCCCC(=O)NC(=S)Nc1cccc2ccccc12
inactive: [13] 90 % of control | [14] 97 % of control

CCOC(=O)C(C)(C)Oc1ccc(O)cc1
inactive: [15] 105 % of control | [16] 105 % of control | [17] 97 % of control

COC(=O)C1C2CCC(C2)C1C (configuration not stated)
inactive: dose: 25.0 mg/kg/injection, schedule: Q04DX003 (ip), vehicle: saline with Tween-80 101 % of control | [18] 97 % of control | [10] 94 % of control

Nc1nc2n(O)cc(C(O)C(O)CO)nc-2c(=O)n1 (configuration not stated)
inactive: [2] 100 % of control | [4] 103 % of control | [6] 103 % of control

C/C=C/CS(=O)(=O)Cc1ccccc1
inactive: [15] 103 % of control | [16] 95 % of control | [17] 103 % of control

O=C(CC(O)(C(F)(F)F)C(F)(F)F)c1cccs1
inactive: dose: 50.0 mg/kg/injection, schedule: Q01DX009 (ip), vehicle: saline with Tween-80 109 % of control | [18] 98 % of control | [1] 102 % of control | [10] 98 % of control | [11] 96 % of control
